This passage reports IC50 results from patent publication US20220041616A1, “SPIRO COMPOUND AND MEDICAL USES THEREOF” (The National Institutes of Pharmaceutical R&D Co., Ltd., priority 2018, published 2022).

A word on the IC50: it is the concentration needed to halve the response being measured. Read a low IC50 as higher potency.

SMILES strings stand for the structures.

In the assay the target is T1, ACC1 (Homo sapiens, UniProt Q13085).
T1 construct: purchased BPS bioscience
Kind of assay: In vitro inhibition of ACC1 activity, ADP-Glo Kinase Analysis. The assay is classed as biochemical. The settings on record: 1 nM ACC1, 10 μM acetyl-CoA, 20 μM ATP. From the text: ADP-Glo™ Kinase Analysis Kit (Promega) is used for the in vitro analysis of the inhibitory effect of the present compound on ACC1 or ACC2. ADP-Glo™ Kinase Analysis is a kinase detection analysis of luminescence method. ADP is produced in the process of catalyzing the substrate by ACC. ADP is converted into ATP which is then converted into light by Ultra-Glo™ luciferase. ADP is quantified by detecting the light signal, thus the enzyme activity can be measured by quantification of the ADP amount produced during the enzyme reaction. The analysis is carried out in two steps: in the first step, after the kinase reaction, a portion of ADP-Glo™ reagent equal in volume to the kinase reaction system is added to terminate the reaction and consume the remaining ATP; in the second step, a kinase detection reagent is added, which not only converts ADP into ATP, but also uses a coupled luciferase/luciferin reaction to detect newly synthesized ATP.
a. 10 mM compound stock solution (the present compound was dissolved in 100% DMSO to prepare the 10 mM stock solution) was diluted 50-fold to 200 μM with 100% DMSO, and then diluted in equal proportions (1:3) in a 96-well dilution plate (249944, Nunc). The gradient concentrations of the compound were 200 μM, 66.67 μM, 22.22 μM, 7.41 μM, 2.47 μM, 0.823 μM, 0.274 μM, 0.0914 μM, 0.0305 μM, 0.0102 μM, 0.00339 μM and 0.00113 μM.
b. 4.5 μL ACC1 working solution (BPS bioscience) (2.22 nM) was added to each well of a 384-well test plate (6007290, Perkin Elmer).
c. 0.5 μL of the serially diluted compound (prepared in step a) was added to each well of the 384-well test plate, which was centrifuged at 1000 rpm for 1 min and then incubated at room temperature for 15 min. The reaction system with compound GS-0976 at a final concentration of 0.1 μM was used as positive control; the reaction system with no compound but DMSO at a final concentration of 5% was used as negative control.
d. In the 384-well test plate (prepared in step c), 5 μL of the substrate working solution was added to each well to start the enzymatic reaction. The plate was centrifuged at 1000 rpm for 1 min and then incubated at room temperature for 30 min. The final concentration of each component in the ACC1 reaction system: 1 nM ACC1, 10 μM acetyl-CoA, 30 mM NaHCO3, and 20 μM ATP. The final concentration of each component in the ACC2 reaction system: 1.1 nM ACC2, 20 μM acetyl-CoA, 20 mM NaHCO3, and 15 μM ATP. Final concentrations of test compounds: 10 μM, 3.33 μM, 1.11 μM, 0.37 μM, 0.123 μM, 0.0411 μM, 0.0137 μM, 0.00457 μM, 0.00152 μM, 0.00051 μM, 0.00017 μM and 0.000056 μM. The final concentration of DMSO was 5% (v/v).
e. 10 μL of ADP-Glo reagent was added to each well of the 384-well test plate (prepared in step d), which was centrifuged at 1000 rpm for 1 min and then incubated at room temperature for 40 min.
f. 20 μL of kinase detection reagent was added to each well of the 384-well test plate (prepared in step e), which was centrifuged at 1000 rpm for 1 min and then incubated at room temperature for 40 min.
g. The chemiluminescence signal was detected with Perkin Elmer EnVision 2104.
ACC1 working solution and substrate working solution were both prepared with 1× kinase reaction buffer. The buffer was consisting of 50 mM HEPES buffer, 2 mM magnesium chloride, 0.01% BRIJ-35, 2 mM potassium citrate, 50 μg/mL BSA and 2 mM DTT.
The average value of the positive and negative control well and the standard deviation were calculated. The inhibition percentage was calculated according to the following formula: 100×[1−(compound−average value of positive control)/(average value of negative control-average value of positive control)].
IC50 of the compound was obtained using GraphPad Prism 6 software according to the following nonlinear fitting formula:
Y=Bottom+(Top−Bottom)/(1+10^((Log IC50−X)×Hillslope)), […]
(In general: ADP-Glo first removes unused ATP, then detects ADP through luciferase.)
`COc1ccccc1[C@H](CN1C(=O)C2(CCN(C(C)(C)C(=O)O)CC2)C(=O)c2c1sc(-c1ncco1)c2C)OC1CCOCC1` [Compound 25, (R)-2-(7′-(2-(2-methoxyphenyl)-2-((tetrahydro-2H-pyran-4-yl)oxy)ethyl)-3′-methyl-2′-(oxazol-2-yl)-4′,6′-dioxo-6′,7′-dihydro-4′H-spiro[piperidine-4,5′-thieno[2,3-d]pyridin]-1-yl)-2-methylpropionic Acid] had an IC50 of 10 to 100 nM.

Turning to `COc1ccccc1[C@H](CN1C(=O)C2(CCN(C(=O)NCCO)CC2)C(=O)c2c1sc(-c1ncco1)c2C)OC1CCOCC1` [Compound 33], the IC50 was below 10 nM.

Consider `COc1ccccc1[C@H](CN1C(=O)C2(CCN(C(=O)OC(C)(C)C)CC2)C(=O)c2c1sc(-c1ncco1)c2C)OC1CCOCC1` [Compound 20, tert-butyl (R)-7′-(2-(2-methoxyphenyl)-2-((tetrahydro-2H-pyran-4-yl)oxy)ethyl)-3′-methyl-2′-(oxazol-2-yl)-4′,6′-dione-6′,7′-dihydro-4′H-spiro[piperidine-4,5′-thieno[2,3-d]pyridine]-1-carboxylate], for which the IC50 lay in the range of 10 to 100 nM.

`COc1ccccc1[C@H](CN1C(=O)C2(CCN(C(N)=O)CC2)C(=O)c2c1sc(-c1ncco1)c2C)OC1CCOCC1` [Compound 31] yielded an IC50 below 10 nM.

`CNC(=O)N1CCC2(CC1)C(=O)c1c(sc(-c3ncco3)c1C)N(C[C@H](OC1CCOCC1)c1ccccc1OC)C2=O` [Compound 32]: the IC50 was below 10 nM.

For the molecule `COC(=O)C(C)(C)N1CCC2(CC1)C(=O)c1c(sc(-c3ncco3)c1C)N(C[C@H](OC1CCOCC1)c1ccccc1OC)C2=O` [Compound 25-1, methyl (R)-2-(7′-(2-(2-methoxyphenyl)-2-((tetrahydro-2H-pyran-4-yl)oxy)ethyl)-3′-methyl-2′-(oxazol-2-yl)-4′,6′-dioxo-6′,7′-dihydro-4′H-spiro[piperidine-4,5′-thieno[2,3-d]pyridin]-1-yl)-2-methylpropanoate], the IC50 is 10 to 100 nM.

Regarding `CNC(=O)[C@H]1C[C@@]2(C1)C(=O)c1c(sc(-c3ncco3)c1C)N(C[C@H](OC1CCOCC1)c1ccccc1OC)C2=O` [Compound 9], the concentration for half-maximal inhibition (IC50) was below 10 nM.

Molecule `COC(=O)N1CCC2(CC1)C(=O)c1c(sc(-c3ncco3)c1C)N(C[C@H](OC1CCOCC1)c1ccccc1OC)C2=O` [Compound 28, methyl (R)-7′-(2-(2-methoxyphenyl)-2-((tetrahydro-2H-pyran-4-yl)oxy)ethyl)-3′-methyl-2′-(oxazol-2-yl)-4′,6′-dioxo-6′,7′-dihydro-4′H-spiro[piperidine-4,5′-thieno[2,3-d]pyridine]-1-carboxylate] had an IC50 below 10 nM.

Turning to `COc1ccccc1[C@H](CN1c2sc(-c3ncco3)c(C)c2C(=O)[C@]2(C[C@H](C(N)=O)C2)C1=O)OC1CCOCC1` [Compound 17], the IC50 is below 10 nM.

`COC(=O)[C@@H](C)NC(=O)[C@H]1C[C@@]2(C1)C(=O)c1c(sc(-c3ncco3)c1C)N(C[C@H](OC1CCOCC1)c1ccccc1OC)C2=O` [Compound 14-1, Methyl ((1S,3S)-7′-((R)-2-(2-methoxyphenyl)-2-((tetrahydro-2H-pyran-4-yl)oxy)ethyl)-3′-methyl-2′-(oxazol-2-yl)-4′,6′-dioxo-6′,7′-dihydro-4′H-spiro[cyclobutane-1,5′-thieno[2,3-b]pyridine]-3-carbonyl)-D-alaninate] yielded an IC50 below 10 nM.

The molecule `COc1ccccc1[C@H](CN1c2sc(-c3ncco3)c(C)c2C(=O)[C@]2(C[C@H](C(=O)N[C@@H](C)C(=O)O)C2)C1=O)OC1CCOCC1` [Compound 13] registered an IC50 below 10 nM.

Take `COC(=O)C(=O)N1CCC2(CC1)C(=O)c1c(sc(-c3ncco3)c1C)N(C[C@H](OC1CCOCC1)c1ccccc1OC)C2=O` [Compound 26, methyl (R)-2-(7′-(2-(2-methoxyphenyl)-2-((tetrahydro-2H-pyran-4-yl)oxy)ethyl)-3′-methyl-2′-(oxazol-2-yl)-4′,6′-dioxo-6′,7′-dihydro-4′H-spiro[piperidine-4,5′-thieno[2,3-d]pyridin]-1-yl)-2-oxoacetate]: the IC50 is below 10 nM.

In turn, `Cc1c(-c2ncco2)sc2c1C(=O)C1(CCCC1)C(=O)N2CC(OC1CCOCC1)c1ccccc1` (stereo not shown) [Compound 2, 3′-methyl-2′-(oxazol-2-yl)-7′-(2-phenyl-2-((tetrahydro-2H-pyran-4-yl)oxy)ethyl)-4′H-spiro[cyclopentane-1,5′-thieno[2,3-b]pyridine]-4′,6′(7′H)-dione] came in with an IC50 above 500 nM.

In turn, `Cc1c(-c2ncco2)sc2c1C(=O)C1(CCC(C)(C(=O)O)C1)C(=O)N2CC(OC1CCOCC1)c1ccccc1` (mixture of isomers) [Compound 4, 3,3′-dimethyl-2′-(oxazol-2-yl)-4′,6′-dioxo-7′-(2-phenyl-2-((tetrahydro-2H-pyran-4-yl)oxy)ethyl)-6′,7′-dihydro-4′H-spiro[cyclopentane-1,5′-thieno[2,3-b]pyridine]-3-carboxylic Acid] returned an IC50 of 100 to 500 nM.

In turn, `Cc1c(-c2ncco2)sc2c1C(=O)C1(CCC1)C(=O)N2CC(OC1CCOCC1)c1ccccc1` (racemic) [Compound 1, 3′-methyl-2′-(oxazol-2-yl)-7′-(2-phenyl-2-((tetrahydro-2H-pyran-4-yl)oxy)ethyl)-4′H-spiro[cyclobutane-1,5′-thieno[2,3-b]pyridine]-4′,6′(7′H)-dione] came in with a 50% inhibitory concentration (IC50) above 500 nM.

As for `COc1ccccc1C(CN1C(=O)C2(CC(C(=O)O)C2)C(=O)c2c1sc(-c1ncco1)c2C)OC1CCOCC1` (single isomer, unassigned) [Compound 8b, 7′-(2-(2-methoxyphenyl)-2-((tetrahydro-2H-pyran-4-yl)oxy)ethyl)-3′-methyl-2′-(oxazol-2-yl)-4′,6′-dioxo-6′,7′-dihydro-4′H-spiro[cyclobutane-1,5′-thieno[2,3-b]pyridine]-3-carboxylic Acid], the IC50 lay within 100 to 500 nM.

Turning to `COC(=O)CNC(=O)[C@H]1C[C@@]2(C1)C(=O)c1c(sc(-c3ncco3)c1C)N(C[C@H](OC1CCOCC1)c1ccccc1OC)C2=O` [Compound 10-1, methyl ((1s,3S)-7′-((R)-2-(2-methoxyphenyl)-2-((tetrahydro-2H-pyran-4-yl)oxy)ethyl)-3′-methyl-2′-(oxazol-2-yl)-4′,6′-dioxo-6′,7′-dihydro-4′H-spiro[cyclobutane-1,5′-thieno[2,3-b]pyridine]-3-carbonyl)glycinate], the IC50 was below 10 nM.

With `COc1ccccc1[C@H](CN1C(=O)C2(CCN(C(=O)C(=O)O)CC2)C(=O)c2c1sc(-c1ncco1)c2C)OC1CCOCC1` [Compound 27, (R)-2-(7′-(2-(2-methoxyphenyl)-2-((tetrahydro-2H-pyran-4-yl)oxy)ethyl)-3′-methyl-2′-(oxazol-2-yl)-4′,6′-dioxo-6′,7′-dihydro-4′H-spiro[piperidine-4,5′-thieno[2,3-d]pyridin]-1-yl)-2-oxoacetic Acid], the IC50 was below 10 nM.

Turning to `COc1ccccc1[C@H](CN1C(=O)C2(CCN(C(=O)NCC(=O)O)CC2)C(=O)c2c1sc(-c1ncco1)c2C)OC1CCOCC1` [Compound 29, (R)-(7′-(2-(2-methoxyphenyl)-2-((tetrahydro-2H-pyran-4-yl)oxy)ethyl)-3′-methyl-2′-(oxazol-2-yl)-4′,6′-dioxo-6′,7′-dihydro-4′H-spiro[piperidine-4,5′-thieno[2,3-d]pyridine]-1-carbonyl)glycine], the concentration for half-maximal inhibition (IC50) is below 10 nM.
